From PubChem BioAssay AID256 (DTP/NCI, 2004) come the findings set out here.

Values joined by “and” are separate entries in the source; they are usually repeats but may differ in a detail not shown here. Equal entries are not always repeated. Inconclusive results and toxic doses are left out.

This experiment concerns CD2F1 mice, L1210 leukemia ip, survival T/C. As to the kind of experiment: NCI In Vivo Anticancer Drug Screen. Data for tumor model L1210 Leukemia (intraperitoneal) in CD2F1 (CDF1) mice. Conditions: higher = longer survival. The gist of the method:
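Antitumor effect is scored in animals hosting a serially transplanted tumor. Values compare compound-dosed animals against vehicle-only controls as a simple quotient.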

Setting [1] is: endpoint: mean survival time, dose: 100.0 mg/kg/injection, schedule: Q01DX009 (ip), vehicle: saline with Tween-80.
Setting [2] is: endpoint: mean survival time, dose: 200.0 mg/kg/injection, schedule: Q01DX009 (ip), vehicle: saline with Tween-80.

Regarding `NC(=O)c1c(Cl)n(C2OC(CO)C(O)C2O)c2ncnc(N)c12` (centres undefined), the T/C reads like this: (endpoint: mean survival time, dose: 1.0 mg/kg/injection, schedule: Q01DX005 (ip), vehicle: distilled water + Tween-80) 103 % of control; (endpoint: mean survival time, dose: 2.0 mg/kg/injection, schedule: Q01DX005 (ip), vehicle: distilled water + Tween-80) 101 % of control; (endpoint: mean survival time, dose: 4.0 mg/kg/injection, schedule: Q01DX005 (ip), vehicle: distilled water + Tween-80) 106 % of control; (endpoint: mean survival time, dose: 8.0 mg/kg/injection, schedule: Q01DX005 (ip), vehicle: distilled water + Tween-80) 103 % of control; (endpoint: mean survival time, dose: 16.0 mg/kg/injection, schedule: Q01DX005 (ip), vehicle: distilled water + Tween-80) 114 % of control; (endpoint: mean survival time, dose: 32.0 mg/kg/injection, schedule: Q01DX005 (ip), vehicle: distilled water + Tween-80) 109 % of control.

Regarding `C=CC1OC2CCCCC2O1` (centres undefined), the T/C (endpoint: mean survival time, dose: 100.0 mg/kg/injection, schedule: Q01DX001 (ip), vehicle: acetone) is 104 % of control.

On to `O=C(CCCC(=O)c1ccccc1)OC1(c2ccccc2)CCCC(=O)O1` (centres undefined), for which the T/C runs as follows: (endpoint: mean survival time, dose: 50.0 mg/kg/injection, schedule: Q04DX002 (ip), vehicle: saline with Tween-80) 98 % of control; (endpoint: mean survival time, dose: 100.0 mg/kg/injection, schedule: Q04DX002 (ip), vehicle: saline with Tween-80) 98 % of control; (endpoint: mean survival time, dose: 200.0 mg/kg/injection, schedule: Q04DX002 (ip), vehicle: saline with Tween-80) 94 % of control.

For the compound `CC(=O)c1ccc2c(c1)Cc1cc(C(C)=O)ccc1-2`, the T/C is, setting by setting: (endpoint: mean survival time, dose: 100.0 mg/kg/injection, schedule: Q04DX003 (ip), vehicle: saline sonified) 96 % of control; (endpoint: mean survival time, dose: 200.0 mg/kg/injection, schedule: Q04DX003 (ip), vehicle: saline sonified) 93 % of control; (endpoint: mean survival time, dose: 400.0 mg/kg/injection, schedule: Q04DX003 (ip), vehicle: saline sonified) 98 % of control.

With `CC(=O)N(C)[Si](C)(C)C`, the T/C is, setting by setting: (endpoint: mean survival time, dose: 100.0 mg/kg/injection, schedule: Q01DX001 (ip), vehicle: saline with Tween-80) 96 % of control; (endpoint: mean survival time, dose: 100.0 mg/kg/injection, schedule: Q01DX009 (ip), vehicle: saline sonified) 98 % of control; (endpoint: mean survival time, dose: 100.0 mg/kg/injection, schedule: Q04DX003 (ip), vehicle: saline) 98 % of control; (endpoint: mean survival time, dose: 200.0 mg/kg/injection, schedule: Q01DX001 (ip), vehicle: saline with Tween-80) 100 % of control; (endpoint: mean survival time, dose: 200.0 mg/kg/injection, schedule: Q01DX009 (ip), vehicle: saline sonified) 96 % of control; (endpoint: mean survival time, dose: 200.0 mg/kg/injection, schedule: Q04DX003 (ip), vehicle: saline) 97 % of control. For the same compound, the T/C was 106 % of control (endpoint: mean survival time, dose: 400.0 mg/kg/injection, schedule: Q01DX001 (ip), vehicle: saline with Tween-80); 96 % of control (endpoint: mean survival time, dose: 400.0 mg/kg/injection, schedule: Q01DX009 (ip), vehicle: saline sonified); 101 % of control (endpoint: mean survival time, dose: 400.0 mg/kg/injection, schedule: Q04DX003 (ip), vehicle: saline).

For the compound `O=C(Nc1ccc(Cl)cc1Cl)SCCO`, the T/C was 108 % of control under setting [1]; 101 % of control under setting [2]; 95 % of control (endpoint: mean survival time, dose: 400.0 mg/kg/injection, schedule: Q01DX009 (ip), vehicle: saline with Tween-80).

Take `COc1cc(OC)c(C(=O)c2ccccc2N)c(OC)c1`: the T/C reads like this: (endpoint: mean survival time, dose: 50.0 mg/kg/injection, schedule: Q01DX009 (ip), vehicle: saline with Tween-80) 98 % of control; under setting [1], 101 % of control; under setting [2], 98 % of control.

For the compound `CC1OC(=O)C2(C(C)C)CC12` (centres undefined), the T/C (endpoint: mean survival time, dose: 9.5 mg/kg/injection, schedule: Q01DX001 (ip), vehicle: other) was 103 % of control and the T/C (endpoint: mean survival time, dose: 19.0 mg/kg/injection, schedule: Q01DX001 (ip), vehicle: other) is 106 % of control.

With `CN(C)N=Nc1cccc([N+](=O)[O-])c1`, the T/C (endpoint: mean survival time, dose: 79.0 mg/kg/injection, schedule: Q01DX009 (ip), vehicle: Klucel (hydroxypropylcellulose) (HPC)) is 107 % of control and the T/C (endpoint: mean survival time, dose: 118.0 mg/kg/injection, schedule: Q01DX009 (ip), vehicle: Klucel (hydroxypropylcellulose) (HPC)) is 102 % of control.

With `CCOC(=O)c1c2cccccc-2c(C(=O)OCC)c1N`, the T/C is 95 % of control (endpoint: mean survival time, dose: 100.0 mg/kg/injection, schedule: Q04DX003 (ip), vehicle: saline with Tween-80); 109 % of control (endpoint: mean survival time, dose: 200.0 mg/kg/injection, schedule: Q04DX003 (ip), vehicle: saline with Tween-80); 92 % of control (endpoint: mean survival time, dose: 400.0 mg/kg/injection, schedule: Q04DX003 (ip), vehicle: saline with Tween-80).

In the case of `C[C@@H]1C[C@@H]([C@H](O)CC2CC(=O)NC(=O)C2)C(=O)[C@@H](C)C1`, the T/C (endpoint: mean survival time, dose: 5.0 mg/kg/injection, schedule: Q01DX009 (ip), vehicle: saline) was 104 % of control and 109 % of control; the T/C (endpoint: mean survival time, dose: 10.0 mg/kg/injection, schedule: Q01DX007 (ip), vehicle: saline) is 107 % of control; the T/C (endpoint: mean survival time, dose: 10.0 mg/kg/injection, schedule: Q03DX003 (ip), vehicle: saline) was 96 % of control; the T/C (endpoint: mean survival time, dose: 10.0 mg/kg/injection, schedule: Q04DX003 (ip), vehicle: saline) was 100 % of control; the T/C (endpoint: mean survival time, dose: 20.0 mg/kg/injection, schedule: Q01DX007 (ip), vehicle: saline) is 107 % of control; the T/C (endpoint: mean survival time, dose: 20.0 mg/kg/injection, schedule: Q03DX003 (ip), vehicle: saline) is 100 % of control. Besides, the T/C (endpoint: mean survival time, dose: 20.0 mg/kg/injection, schedule: Q04DX003 (ip), vehicle: saline) was 100 % of control; the T/C (endpoint: mean survival time, dose: 40.0 mg/kg/injection, schedule: Q01DX007 (ip), vehicle: saline) is 115 % of control; the T/C (endpoint: mean survival time, dose: 40.0 mg/kg/injection, schedule: Q03DX003 (ip), vehicle: saline) is 104 % of control; the T/C (endpoint: mean survival time, dose: 40.0 mg/kg/injection, schedule: Q04DX003 (ip), vehicle: saline) is 106 % of control; the T/C (endpoint: mean survival time, dose: 80.0 mg/kg/injection, schedule: Q01DX009 (ip), vehicle: saline) was 120 % of control; the T/C (endpoint: mean survival time, dose: 160.0 mg/kg/injection, schedule: Q01DX009 (ip), vehicle: saline) is 89 % of control. Also, the T/C runs as follows: (endpoint: median survival time, dose: 12.5 mg/kg/injection, schedule: Q01DX009 (ip), vehicle: saline) 109 % of control; (endpoint: median survival time, dose: 25.0 mg/kg/injection, schedule: Q01DX009 (ip), vehicle: saline) 114 % of control and 119 % of control; (endpoint: median survival time, dose: 200.0 mg/kg/injection, schedule: Q01DX009 (ip), vehicle: saline) 101 % of control.

On to `CSc1nc(N)cc(=O)[nH]1`, for which the T/C runs as follows: (endpoint: mean survival time, dose: 50.0 mg/kg/injection, schedule: Q01DX001 (ip), vehicle: Klucel (hydroxypropylcellulose) (HPC)) 98 % of control; (endpoint: mean survival time, dose: 100.0 mg/kg/injection, schedule: Q01DX001 (ip), vehicle: Klucel (hydroxypropylcellulose) (HPC)) 96 % of control; (endpoint: mean survival time, dose: 200.0 mg/kg/injection, schedule: Q01DX001 (ip), vehicle: Klucel (hydroxypropylcellulose) (HPC)) 86 % of control.

Take `CN(C)CCCOc1nc2c(c(=O)n(C)c(=O)n2C)n1C` (tested in a mixture with another compound): the T/C is 111 % of control (endpoint: median survival time, dose: 6.25 mg/kg/injection, schedule: Q01DX009 (ip), vehicle: Klucel (hydroxypropylcellulose) (HPC)); 116 % of control and 117 % of control (endpoint: median survival time, dose: 12.5 mg/kg/injection, schedule: Q01DX009 (ip), vehicle: Klucel (hydroxypropylcellulose) (HPC)); 154 % of control and 176 % of control (endpoint: median survival time, dose: 50.0 mg/kg/injection, schedule: Q01DX009 (ip), vehicle: Klucel (hydroxypropylcellulose) (HPC)); 155 % of control and 185 % of control (endpoint: median survival time, dose: 100.0 mg/kg/injection, schedule: Q01DX009 (ip), vehicle: Klucel (hydroxypropylcellulose) (HPC)); 172 % of control (endpoint: median survival time, dose: 200.0 mg/kg/injection, schedule: Q01DX009 (ip), vehicle: Klucel (hydroxypropylcellulose) (HPC)).

Regarding `O=c1cc(CCl)n2cnc3c(ncn3C3OC(CO)C(O)C3O)c2n1` (centres undefined), the T/C is, setting by setting: (endpoint: median survival time, dose: 12.5 mg/kg/injection, schedule: Q01DX005 (ip), vehicle: saline with Tween-80) 103 % of control; (endpoint: median survival time, dose: 25.0 mg/kg/injection, schedule: Q01DX005 (ip), vehicle: saline with Tween-80) 102 % of control; (endpoint: median survival time, dose: 50.0 mg/kg/injection, schedule: Q01DX005 (ip), vehicle: saline with Tween-80) 96 % of control; (endpoint: median survival time, dose: 100.0 mg/kg/injection, schedule: Q01DX005 (ip), vehicle: saline with Tween-80) 104 % of control; (endpoint: median survival time, dose: 200.0 mg/kg/injection, schedule: Q01DX005 (ip), vehicle: saline with Tween-80) 98 % of control.

On to `C=CCOc1ccncc1`, for which the T/C is 101 % of control (endpoint: mean survival time, dose: 12.5 mg/kg/injection, schedule: Q01DX009 (ip), vehicle: saline sonified); 93 % of control (endpoint: mean survival time, dose: 12.5 mg/kg/injection, schedule: Q04DX003 (ip), vehicle: saline with Tween-80); 100 % of control (endpoint: mean survival time, dose: 25.0 mg/kg/injection, schedule: Q01DX009 (ip), vehicle: saline sonified); 93 % of control (endpoint: mean survival time, dose: 25.0 mg/kg/injection, schedule: Q04DX003 (ip), vehicle: saline with Tween-80); 101 % of control (endpoint: mean survival time, dose: 50.0 mg/kg/injection, schedule: Q01DX009 (ip), vehicle: saline sonified); 93 % of control (endpoint: mean survival time, dose: 50.0 mg/kg/injection, schedule: Q04DX003 (ip), vehicle: saline with Tween-80).
